According to patent US20230332103A1, “Methods and Compositions for Generating Human Forebrain Neural Progenitor Cells and for Maturation Thereof to Parvalbumin+ Interneurons” (Trailhead Biosystems Inc., priority 2021, published 2023):
Values joined by “and” are separate entries in the source; they are usually repeats but may differ in a detail not shown here. Identical values can stand only once. “Also recorded” adds a separate entry of the source.

Columns and labels:
[1] = system: stage 2 neural stem cells; assay: factor criticality analysis (dynamic profile analysis) of stage 3 recipe; assay type: cell-based, human; parameters: unit not given here; details: other five factors present; for expression level of DLX1 when the effector is removed: 220 with all six factors; for expression level of LHX6 when the effector is removed: 240 with all six factors; for expression level of ASCL1 when the effector is removed: 1650 with all six factors
Experimental: To assess the impact of the elimination of each validated factor, dynamic profile analysis was used and compared the expression level of genes of interest in absence of each finalized factor while others are present. […] In the stage 3 recipe, each of the six finalized factors were removed while the other five factors remained present and the expression levels of ASCL1, DLX1 and LHX6 were assessed compared to the presence of all six factors. […] As expected, in the absence of IGF-1, the value of DLX1 increases to 410, however, ASCL1 and LHX6 decreased to 1390 and 220, respectively.

[2] = system: stage 2 neural stem cells (cells treated with stage 1 and stage 2 media); assay: HD-DoE experiment for stage 3 recipe, optimized for ASCL1; assay type: cell-based, human; details: for factor contribution on expression of ASCL1: positive, model optimized for maximum expression of ASCL1 at 1700, FIG. 9
Experimental: To further guide the cells to medial ganglionic eminence progenitor fate, an additional HD-DoE experiment was performed for 3 days on cells that were treated with stage 1 and stage 2 media for total of 6 days prior to start of the experiment. This experiment included 13 effectors, LDN193189, A8301, GNF5837, AZD3147, GSI-XX, Takinib, PD0325901, PD173074, BLU9931, IGF-1, MHY1485, Purmorphamine and Prostratin. In this model, we focused on maximum expression of genes expressed in neuronal progenitor cells in medial ganglionic eminence (MGE) region including ASCL1, LHX6 and DLX1 (Silberberg et al. (2016) Neuron 92:59-74). When the model was optimized for maximum expression of ASCL1 at 1700, A8301, GSI-XX, Purmorphamine and Takinib, which is an inhibitor of TAK1 pathway, had the highest factor contributions, 18.1, 14.1, 12.7 and 10.1 respectively. […]

[3] = system: human pluripotent stem cells; assay: additional HD-DoE experiment for stage 1 (forebrain differentiation from pluripotency), optimized for FEZF2; assay type: cell-based; details: dynamic profile, FIG. 6
Experimental: To identify the recipe for stage 1 of differentiation, 96 different combinations of effectors generated using Design-of-Experiments compression through D-optimality were robotically prepared. The effector combinations were prepared in a basal media and were subsequently added to the cells, which were then allowed to differentiate. Three days later RNA extraction was performed, and gene expression was obtained using quantitative PCR analysis. The data were normalized and modeled using partial least squares regression analysis to the effector design, resulting in the generation of gene-specific models, which after model tuning for maximal Q2 predictive power, provided explanation of the effectors ability to control the expression of individual genes, combinatorially, and individually. Solutions within the tested space could then be explored to address desirability.
To further enhance the conditions for forebrain differentiation from pluripotency, an additional HD-DoE experiment was performed. Additional gene regulatory models were obtained that were used for preparation of the differentiation protocol. The factors in this experiment included LDN193189, PD173074, BLU9931, Purmorphamine, SC79, MK2206, ZM336372, PD0325901, CHIR99021, XAV939, UCLA-GP130, Tofacitinib and GO6983. […] Dynamic profile analysis was also used to assess the interaction between the effectors.

[4] = system: forebrain-committed neural stem cells (stage 1 neural stem cells); assay: HD-DoE 12-factor experiment for stage 2 recipe, optimized for NKX2-1; assay type: cell-based, human; details: for impact on expression of NKX2-1: model maximized for NKX2-1 / dynamic profile, FIG. 7 and 8
Experimental: To further guide the differentiation of forebrain-committed neural stem cells to ventral forebrain neural stem cells at stage 2, a HD-DoE experiment was performed for 3 days after termination of stage 1 treatment. At this time, we focused on maximum expression of NKX2-1 that is expressed in ventral forebrain region and minimum expression of PAX6 that is expressed in dorsal forebrain region. This 12-factor experiment included LDN193189, BMP7, PD0325901, MK2206, A8301, XAV939, CHIR99021, Purmorphamine, SANT-1, AGN193109, TTNPB and GSI-XX.

MGE progenitor cells = assay: HD-DoE 12-factor experiment for stage 4 recipe, optimized for MEF2C; assay type: cell-based, human
Description: These effectors are small molecules or proteins. They are commonly used during stepwise differentiation of stem cells to specific fates. The choice of the effectors was based on current literature on neural induction in forebrain region of developing brain and differentiation of stem cells to neural progenitors.
To evaluate the effectors, experiments with at least 8 factors were designed that can assess the response of cells to 48 or more different combinations of effectors in a range of concentrations. To analyze the models, we focused on expression of genes involved in development and patterning of the forebrain interneurons maturation including LHX6 (Yuan et al. (2018) Elife, 7:e37382), DLX5 (Wang et al. (2010) J. Neuroscience 30:5334-5345), ASCL1 (Shi et al. (2016) J. Biol. Chem. 291:13560-13570). At later stages we focused on interneuron maturation genes including Parvalbumin and absence of somatostatin (Horn and Nicoll (2018) Proc. Natl. Acad. Sci. 115:589-594). The impacts of each effector on gene expression level are defined by a parameter called factor contribution that is calculated for each effector during the modeling.
To identify the recipe of stage 4 of differentiation, 48 different combinations of effectors generated using Design-of-Experiments compression through D-optimality were robotically prepared. The effector combinations were prepared in a basal media and were subsequently added to the cells, which were then allowed to differentiate. Three days later RNA extraction was performed, and gene expression was obtained using quantitative PCR analysis. The data was normalized and modeled using partial least squares regression analysis to the effector design, resulting in the generation of gene-specific models, which after model tuning for maximal predictive power, provided explanation of the effectors ability to control the expression of individual genes, combinatorically, and individually. Solutions within the tested space could then be explored to address desirability. […] Valproic Acid can inhibit histone deaceylases and increase γ-aminobutyric acid (GABA). […] GDNF is the […] Glial cell line-derived neurotrophic factor and can activate the GDNF pathway.
To find the set of factors that have the potential to optimize MEF2C in this experiment, a new assessment was done through dynamic profile analysis with focus on maximal expression of MEF2C (FIG. 20).

[5] = system: human pluripotent stem cells; assay: HD-DoE 12-factor experiment for stage 1 recipe, gene expression by quantitative PCR after 3 days; assay type: cell-based
Description: This example utilizes a method of High-Dimensional Design of Experiments (HD-DoE), as previously described in Bukys et al. (2020) […] 23:101346. The method employs computerized design geometries to simultaneously test multiple process inputs and offers mathematical modeling of a deep effector/response space. The method allows for finding combinatorial signaling inputs that control a complex process, such as during cell differentiation. It allows testing of multiple plausible critical process parameters, as such parameters impact output responses, such as gene expression. Because gene expression provides hallmark features of the phenotype of, for example, a human cell, the method can be applied to identify, and understand, which signaling pathways control cell fate. In the current example, the HD-DOE method was applied with the intent to find conditions for induction of […] neural progenitor-expressed genes, directly from the pluripotent stem cell state. To develop the recipe for each stage, the impact of agonists and antagonists of multiple signaling pathways (herein called effectors) on the expression of two sets of 53 pre-selected genes, after a 3-day treatment, has been tested and modeled. These effectors are small molecules or proteins that are commonly used during stepwise differentiation of stem cells to specific fates. Choice of the effectors were based on current literature on neural induction in forebrain region of developing brain and differentiation of stem cells to neural progenitors. To test the effectors, experiments with at least 8 factors were designed that can assess the response of cells to 48 or more different combinations of effectors in a range of concentrations. To analyze the models, we focused on expression of genes involved in development and patterning of the anterior neuroectoderm and forebrain including OTX2 (Hoch et al. (2015) Cell Reports 12:482-494), SIX3 (Lagutin et al. (2003) Genes & Development 17:368-379) and FEZF2 (Zhang et al. (2014) Development 141:4794-[…]). At later stages we focused on dorsoventral patterning of telencephalon and gene expressed in ventral forebrain including NKX2-1 and absence of PAX6 which is a dorsal forebrain marker (Stoykova et al. (2000) J. Neurosci. 20:8042-8050). The impact of each effector on gene expression level is defined by a parameter called factor contribution that is calculated for each effector during the modeling. To identify the recipe for stage 1 of differentiation, 96 different combinations of effectors generated using Design-of-Experiments compression through D-optimality were robotically prepared. The effector combinations were prepared in a basal media and were subsequently added to the cells, which were then allowed to differentiate. Three days later RNA extraction was performed, and gene expression was obtained using quantitative PCR analysis. […] Solutions within the tested space could then be explored to address desirability. Optimizing for maximal expression of SIX3 at 3300 and FEZF2 1355 expression values led to robust solutions. This model was derived from testing 12 effectors including AGN193109, LDN193189, CHIR99021, XAV939, IGF2, Purmorphamine, 4-oxo-RA, TTNPB, SR11237, FGF8, PD0325901 and […]. […] The model was also optimized for maximum expression of FEZF2 separately at 3576 expression value to find any additional factors that can boost expression of forebrain genes. […] To find the set of factors that have the potential to optimize all 3 genes in this experiment, a new assessment was done through dynamic profile analysis with focus on maximal expression of OTX2, FEZF2 and SIX3.

[6] = dynamic profile analysis, FIG. 10
[7] = dynamic profile analysis, FIG. 4

## Cc1cccc(-c2nn(C(=S)Nc3ccccc3)cc2-c2ccnc3ccccc23)n1 [A8301]
[1]
  expression level of DLX1 when the effector is removed: did not change significantly
  expression level of LHX6 when the effector is removed: did not change significantly
  expression level of ASCL1 when the effector is removed: 1000
[2]; [6]
  impact on expression of ASCL1: positive trends; also recorded: Positive impact
  impact on expression of DLX1: did not have a significant negative impact
  impact on expression of LHX6: positive trends; also recorded: Positive impact
[2]
  factor contribution on expression of ASCL1: 18.1 and 18

## Cc1ccc(NC(=O)Nc2cc(C(F)(F)F)ccc2F)cc1Nc1ccc2c(c1)NC(=O)/C2=C\c1ccc[nH]1 [GNF5837]
[1]
  expression level of DLX1 when the effector is removed: did not have a significant impact
  expression level of LHX6 when the effector is removed: 160
  expression level of ASCL1 when the effector is removed: 1300
[2]
  factor contribution on expression of ASCL1: 9.4

## COc1ccc2c(c1)c(C1=C(c3c[nH]c4ccccc34)C(=O)NC1=O)cn2CCCN(C)C [GO6983]
[3]
  impact on expression of FEZF2: positive impact

## NC1(c2ccc(-c3nc4ccn5c(=O)[nH]nc5c4cc3-c3ccccc3)cc2)CCC1 [MK2206]
[4]
  impact on expression of NKX2-1: increase its expression level
[3]
  impact on expression of FEZF2: positive impact

## Cc1nn(-c2ccccc2)c(C)c1/C=N/N1CCN(Cc2ccccc2)CC1 [SANT-1]
[4]
  impact on expression of NKX2-1: negative impact
[4]; negative role, model optimized for maximum expression of NKX2-1, FIG. 7
  factor contribution on expression of NKX2-1: 26.3

## NC(=O)c1ccc(-c2nc(-c3ccc4c(c3)OCO4)c(-c3ccccn3)[nH]2)cc1 [SB431542]
MGE progenitor cells; dynamic profile analysis, FIG. 20
  impact on expression of MEF2C: negative effect
MGE progenitor cells; significant negative effect, model optimized for maximal expression of MEF2C
  factor contribution on expression of MEF2C: 7.9

## C/C(=C\c1ccc(C(=O)O)cc1)c1ccc2c(c1)C(C)(C)CCC2(C)C [TTNPB]
[4]
  impact on expression of NKX2-1: negative impact
[5]; FIG. 2 legend, model optimized for maximum expression of SIX3 as printed
  factor contribution, important input for high expression of SIX3: 23.7
[5]; [7]
  impact on expression of OTX2: negative impact
  impact on expression of SIX3: negative impact
[5]; positive impact, model optimized for maximum expression of FEZF2
  factor contribution on expression of FEZF2: 24
[5]; significant negative effect, model optimized for maximal expression of SIX3
  factor contribution on expression of SIX3: 21
[5]; significant negative impact, model of maximum expression of OTX2
  factor contribution on expression of OTX2: 29 and 28.8

## CCCn1/c(=N/C(=O)c2cccc(C(N)=O)c2)[nH]c2ccccc21 [Takinib]
[1]
  expression level of DLX1 when the effector is removed: 180
  expression level of LHX6 when the effector is removed: 170
[2]
  factor contribution on expression of ASCL1: 10.1
